Results published in patent publication US20230091047A1 (priority 2019, published 2023).

Columns and labels:
[1] = in vitro; assay type: cell-based; details: human, HepG2 or HepG2.117 cells, ATPlite, mean value; for CC50 at 4 days: 4-days incubation (values marked with *); for CC50 at 3 days: 3-days incubation (unmarked values)
Method in brief: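 Luminescent ATP quantitation served as the viability endpoint following a 3- or 4-day incubation with test compounds.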

[2] = system: HBV (HepG2.117 cell line, inducibly HBV producing); experiment: Anti-HBV activity: intracellular HBV DNA by real-time PCR in HepG2.117 cells after 3 days of treatment; assay type: cell-based, hepatitis B virus; details: Hepatitis B virus, HepG2.117, 72 h, HepG2.117 cells, 3 days of treatment, intracellular HBV DNA by real-time PCR; mean value; read-out: EC50 (μM, mean value)
Method in brief: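 First, HBV replication is induced in HepG2.117 cells by doxycycline absence. Next, serially diluted compound is added for 3 days. Finally, intracellular HBV DNA is quantified by HBV-specific real-time PCR.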

COc1ccc(CNc2nc3c(c(=O)n2-c2cccc(C(F)(F)F)c2)CCN(C(=O)c2ccc(Cl)c(Cl)c2)C3)cc1 [Compound C7, 7-(3,4-dichlorobenzoyl)-2-{[(4-methoxyphenyl)methyl]amino}-3-[3-(trifluoromethyl)phenyl]-5,6,7,8-tetrahydropyrido[3,4-d]pyrimidin-4(3H)-one]
CC50 at 4 days [1]: > 50 µM | EC50 [2]: 2.03 µM

COc1ccc(CNc2nc3c(c(=O)n2-c2cccc(OC)c2)CCN(C(=O)c2ccc(Cl)c(Cl)c2)C3)cc1 [Compound C8, 7-(3,4-dichlorobenzoyl)-3-(3-methoxyphenyl)-2-{[(4-methoxyphenyl)methyl]amino}-5,6,7,8-tetrahydropyrido[3,4-d]pyrimidin-4(3H)-one]
CC50 at 3 days [1]: > 50 µM | EC50 [2]: 1 µM

COc1ccccc1-n1c(NCc2cccnc2)nc2c(c1=O)CCN(C(=O)c1ccc(Cl)c(Cl)c1)C2 [Compound C9, 7-(3,4-dichlorobenzoyl)-3-(2-methoxyphenyl)-2-{[(pyridin-3-yl)methyl]amino}-5,6,7,8-tetrahydropyrido[3,4-d]pyrimidin-4(3H)-one]
CC50 at 4 days [1]: > 50 µM | EC50 [2]: 11.6 µM

COc1ccccc1-n1c(NCc2ccccc2)nc2c(c1=O)CCN(C(=O)c1ccc(Cl)c(Cl)c1)C2 [Compound C10, 2-(benzylamino)-7-(3,4-dichlorobenzoyl)-3-(2-methoxyphenyl)-5,6,7,8-tetrahydropyrido[3,4-d]pyrimidin-4(3H)-one]
CC50 at 4 days [1]: > 50 µM | EC50 [2]: 6.21 µM

CNc1nc2c(c(=O)n1-c1ccccc1OC)CCN(C(=O)c1ccc(Cl)c(Cl)c1)C2 [Compound C11, 7-(3,4-dichlorobenzoyl)-3-(2-methoxyphenyl)-2-(methylamino)-5,6,7,8-tetrahydropyrido[3,4-d]pyrimidin-4(3H)-one]
CC50 at 4 days [1]: > 50 µM | EC50 [2]: 6.41 µM

COc1ccccc1-n1c(NCc2ccccn2)nc2c(c1=O)CCN(C(=O)c1ccc(Cl)c(Cl)c1)C2 [Compound C12, 7-(3,4-dichlorobenzoyl)-3-(2-methoxyphenyl)-2-{[(pyridin-2-yl)methyl]amino}-5,6,7,8-tetrahydropyrido[3,4-d]pyrimidin-4(3H)-one]
CC50 at 4 days [1]: > 50 µM | EC50 [2]: 5.95 µM

COc1ccccc1-n1c(NCc2nccs2)nc2c(c1=O)CCN(C(=O)c1ccc(Cl)c(Cl)c1)C2 [Compound C13, 7-(3,4-dichlorobenzoyl)-3-(2-methoxyphenyl)-2-{[(1,3-thiazol-2-yl)methyl]amino}-5,6,7,8-tetrahydropyrido[3,4-d]pyrimidin-4(3H)-one]
CC50 at 4 days [1]: 38.9 µM | EC50 [2]: 8.75 µM

COc1ccc(CNc2nc3c(c(=O)n2-c2ccccc2F)CCN(C(=O)c2ccc(Cl)c(Cl)c2)C3)cc1 [Compound C14, 7-(3,4-dichlorobenzoyl)-3-(2-fluorophenyl)-2-{[(4-methoxyphenyl)methyl]amino}-5,6,7,8-tetrahydropyrido[3,4-d]pyrimidin-4(3H)-one]
CC50 at 3 days [1]: > 50 µM | EC50 [2]: 1 µM

COc1ccc(CNc2nc3c(c(=O)n2-c2ccccc2Cl)CCN(C(=O)c2ccc(Cl)c(Cl)c2)C3)cc1 [Compound C15, 3-(2-chlorophenyl)-7-(3,4-dichlorobenzoyl)-2-{[(4-methoxyphenyl)methyl]amino}-5,6,7,8-tetrahydropyrido[3,4-d]pyrimidin-4(3H)-one]
CC50 at 3 days [1]: > 50 µM | EC50 [2]: 1.08 µM

COc1ccccc1-n1c(NCc2cscn2)nc2c(c1=O)CCN(C(=O)c1ccc(Cl)c(Cl)c1)C2 [Compound C16, 7-(3,4-dichlorobenzoyl)-3-(2-methoxyphenyl)-2-{[(1,3-thiazol-4-yl)methyl]amino}-5,6,7,8-tetrahydropyrido[3,4-d]pyrimidin-4(3H)-one]
CC50 at 4 days [1]: 45.3 µM | EC50 [2]: 2.29 µM

COc1ccccc1CNc1nc2c(c(=O)n1-c1ccccc1OC)CCN(C(=O)c1ccc(Cl)c(Cl)c1)C2 [Compound C17, 7-(3,4-dichlorobenzoyl)-3-(2-methoxyphenyl)-2-{[(2-methoxyphenyl)methyl]amino}-5,6,7,8-tetrahydropyrido[3,4-d]pyrimidin-4(3H)-one]
CC50 at 4 days [1]: 28.9 µM | EC50 [2]: 0.97 µM

COc1cccc(CNc2nc3c(c(=O)n2-c2ccccc2OC)CCN(C(=O)c2ccc(Cl)c(Cl)c2)C3)c1 [Compound C18, 7-(3,4-dichlorobenzoyl)-3-(2-methoxyphenyl)-2-{[(3-methoxyphenyl)methyl]amino}-5,6,7,8-tetrahydropyrido[3,4-d]pyrimidin-4(3H)-one]
CC50 at 4 days [1]: > 50 µM | EC50 [2]: 3.27 µM

COc1ccccc1-n1c(NCc2cncs2)nc2c(c1=O)CCN(C(=O)c1ccc(Cl)c(Cl)c1)C2 [Compound C19, 7-(3,4-dichlorobenzoyl)-3-(2-methoxyphenyl)-2-{[(1,3-thiazol-5-yl)methyl]amino}-5,6,7,8-tetrahydropyrido[3,4-d]pyrimidin-4(3H)-one]
CC50 at 3 days [1]: > 50 µM | EC50 [2]: 8.77 µM

COc1ccccc1-n1c(NCCc2ccccc2)nc2c(c1=O)CCN(C(=O)c1ccc(Cl)c(Cl)c1)C2 [Compound C20, 7-(3,4-dichlorobenzoyl)-3-(2-methoxyphenyl)-2-[(2-phenylethyl)amino]-5,6,7,8-tetrahydropyrido[3,4-d]pyrimidin-4(3H)-one]
CC50 at 4 days [1]: 23.1 µM | EC50 [2]: 8.92 µM

O=C(c1ccc(Cl)c(Cl)c1)N1CCc2c(nc(NCc3ccccc3)[nH]c2=O)C1 [Compound C21, 2-(benzylamino)-7-(3,4-dichlorobenzoyl)-5,6,7,8-tetrahydropyrido[3,4-d]pyrimidin-4(3H)-one]
CC50 at 4 days [1]: 24.7 µM | EC50 [2]: 7.51 µM

COc1ccccc1-n1c(NCC(C)C)nc2c(c1=O)CCN(C(=O)c1ccc(Cl)c(Cl)c1)C2 [Compound C22, 7-(3,4-dichlorobenzoyl)-3-(2-methoxyphenyl)-2-[(2-methylpropyl)amino]-5,6,7,8-tetrahydropyrido[3,4-d]pyrimidin-4(3H)-one]
CC50 at 4 days [1]: 26.2 µM | EC50 [2]: 21.7 µM

COc1ccccc1-n1c(NCc2ccc(C(F)(F)F)cc2)nc2c(c1=O)CCN(C(=O)c1ccc(Cl)c(Cl)c1)C2 [Compound C23, 7-(3,4-dichlorobenzoyl)-3-(2-methoxyphenyl)-2-({[4-(trifluoromethyl)phenyl]methyl}amino)-5,6,7,8-tetrahydropyrido[3,4-d]pyrimidin-4(3H)-one]
CC50 at 4 days [1]: > 50 µM | EC50 [2]: 2.56 µM

COc1ccccc1-n1c(NC(C)C)nc2c(c1=O)CCN(C(=O)c1ccc(Cl)c(Cl)c1)C2 [Compound C24, 7-(3,4-dichlorobenzoyl)-3-(2-methoxyphenyl)-2-[(propan-2-yl)amino]-5,6,7,8-tetrahydropyrido[3,4-d]pyrimidin-4(3H)-one]
CC50 at 4 days [1]: > 50 µM | EC50 [2]: 2.25 µM

COc1ccccc1-n1c(NCC2CCN(C(C)=O)CC2)nc2c(c1=O)CCN(C(=O)c1ccc(Cl)c(Cl)c1)C2 [Compound C25, 2-{[(1-acetylpiperidin-4-yl)methyl]amino}-7-(3,4-dichlorobenzoyl)-3-(2-methoxyphenyl)-5,6,7,8-tetrahydropyrido[3,4-d]pyrimidin-4(3H)-one]
CC50 at 3 days [1]: > 50 µM | EC50 [2]: 44.7 µM

COc1ccccc1-n1c(NCc2ccc3c(c2)OCO3)nc2c(c1=O)CCN(C(=O)c1ccc(Cl)c(Cl)c1)C2 [Compound C26, 2-{[(2H-1,3-benzodioxol-5-yl)methyl]amino}-7-(3,4-dichlorobenzoyl)-3-(2-methoxyphenyl)-5,6,7,8-tetrahydropyrido[3,4-d]pyrimidin-4(3H)-one]
CC50 at 3 days [1]: > 50 µM | EC50 [2]: 1.72 µM

COc1ccccc1-n1c(NCc2ccc(S(C)(=O)=O)cc2)nc2c(c1=O)CCN(C(=O)c1ccc(Cl)c(Cl)c1)C2 [Compound C27, 7-(3,4-dichlorobenzoyl)-2-({[4-(methanesulfonyl)phenyl]methyl}amino)-3-(2-methoxyphenyl)-5,6,7,8-tetrahydropyrido[3,4-d]pyrimidin-4(3H)-one]
CC50 at 3 days [1]: > 50 µM | EC50 [2]: 1.98 µM

COCCn1c(NCc2ccccc2)nc2c(c1=O)CCN(C(=O)c1ccc(Cl)c(Cl)c1)C2 [Compound C28, 2-(benzylamino)-7-(3,4-dichlorobenzoyl)-3-(2-methoxyethyl)-5,6,7,8-tetrahydropyrido[3,4-d]pyrimidin-4(3H)-one]
CC50 at 3 days [1]: 25.2 µM | EC50 [2]: 9.1 µM

COc1ccccc1-n1c(NCc2ccc(F)cc2F)nc2c(c1=O)CCN(C(=O)c1ccc(Cl)c(Cl)c1)C2 [Compound C29, 7-(3,4-dichlorobenzoyl)-2-{[(2,4-difluorophenyl)methyl]amino}-3-(2-methoxyphenyl)-5,6,7,8-tetrahydropyrido[3,4-d]pyrimidin-4(3H)-one]
CC50 at 3 days [1]: 23.3 µM | EC50 [2]: 7.43 µM

COc1ccccc1-n1c(NCc2ccc(Cl)cc2Cl)nc2c(c1=O)CCN(C(=O)c1ccc(Cl)c(Cl)c1)C2 [Compound C30, 7-(3,4-dichlorobenzoyl)-2-{[(2,4-dichlorophenyl)methyl]amino}-3-(2-methoxyphenyl)-5,6,7,8-tetrahydropyrido[3,4-d]pyrimidin-4(3H)-one]
CC50 at 3 days [1]: > 50 µM | EC50 [2]: > 50 µM

COc1ccc(CN(C)c2nc3c(c(=O)[nH]2)CCN(C(=O)c2ccc(Cl)c(Cl)c2)C3)cc1 [Compound C31, 7-(3,4-dichlorobenzoyl)-2-{[(4-methoxyphenyl)methyl](methyl)amino}-5,6,7,8-tetrahydropyrido[3,4-d]pyrimidin-4(3H)-one]
CC50 at 3 days [1]: > 50 µM | EC50 [2]: 2.63 µM

COc1ccccc1-n1c(NC2CCC2)nc2c(c1=O)CCN(C(=O)c1ccc(Cl)c(Cl)c1)C2 [Compound C32, 2-(cyclobutylamino)-7-(3,4-dichlorobenzoyl)-3-(2-methoxyphenyl)-5,6,7,8-tetrahydropyrido[3,4-d]pyrimidin-4(3H)-one]
CC50 at 3 days [1]: 29.5 µM | EC50 [2]: 19.9 µM
